Data as given in patent publication US20250144094A1 (Erasca, Inc., priority 2021, published 2025).

molecular target: Recombinant human ULK1 (1-649) (Homo sapiens (Human), UniProt O75385); test: ULK1 ADP Glo kinase activity assay, new method (ULKtide peptide substrate); details: 25° C., 40 minutes, read-out: ULK1 biochemical IC50
In short: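 GST-tagged human ULK1 (1-649) from Sf9 cells was reacted with ULKtide peptide and ATP for 40 min at 25 °C across 12-point compound dilutions from 10 μM. ADP formed was quantified by ADP-Glo luminescence; IC50 came from four-parameter fits relative to DMSO controls.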

Sequence of Recombinant human ULK1 (1-649) (O75385 1-649): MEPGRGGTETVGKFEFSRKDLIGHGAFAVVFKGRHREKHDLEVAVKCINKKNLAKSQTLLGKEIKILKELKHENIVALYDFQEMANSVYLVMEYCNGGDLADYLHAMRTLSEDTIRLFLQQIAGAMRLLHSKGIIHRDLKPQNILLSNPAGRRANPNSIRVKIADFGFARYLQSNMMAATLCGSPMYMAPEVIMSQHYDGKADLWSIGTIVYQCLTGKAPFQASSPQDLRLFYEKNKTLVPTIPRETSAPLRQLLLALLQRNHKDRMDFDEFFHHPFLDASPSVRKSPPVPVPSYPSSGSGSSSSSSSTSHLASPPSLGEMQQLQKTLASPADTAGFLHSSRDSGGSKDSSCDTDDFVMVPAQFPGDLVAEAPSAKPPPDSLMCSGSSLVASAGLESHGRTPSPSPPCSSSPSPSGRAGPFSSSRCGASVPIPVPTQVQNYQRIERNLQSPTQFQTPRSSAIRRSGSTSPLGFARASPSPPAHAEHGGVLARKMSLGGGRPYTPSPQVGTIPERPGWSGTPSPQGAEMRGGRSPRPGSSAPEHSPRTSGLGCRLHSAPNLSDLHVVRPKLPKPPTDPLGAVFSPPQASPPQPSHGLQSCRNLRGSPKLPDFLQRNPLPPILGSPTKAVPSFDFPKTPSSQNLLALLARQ

Row | Structure (SMILES) | IC50 [nM]
1 | Cc1cnc(Nc2cc3c(cc2C2CC2)CNCC3)nc1-c1cc2c(s1)C(=O)N(C1CC1)CCS2(=O)=O [Example 260, 4-cyclopropyl-7-(2-((7-cyclopropyl-1,2,3,4-tetrahydroisoquinolin-6-yl)amino)-5-methylpyrimidin-4-yl)-3,4-dihydrothieno[2,3-f][1,4]thiazepin-5(2H)-one 1,1-dioxide] | ≤ 5
2 | O=C1c2sc(-c3nc(Nc4cc5c(cc4C4CC4)CNCC5)ncc3C3CC3)cc2S(=O)(=O)CCN1C1CC1 [Example 261, 4-cyclopropyl-7-(5-cyclopropyl-2-((7-cyclopropyl-1,2,3,4-tetrahydroisoquinolin-6-yl)amino)pyrimidin-4-yl)-3,4-dihydrothieno[2,3-f][1,4]thiazepin-5(2H)-one 1,1-dioxide] | ≤ 5
3 | CCc1cc2c(cc1Nc1ncc(C(F)(F)F)c(-c3cc4c(s3)C(=O)N(C3COC3)CCS4(=O)=O)n1)CNCC2 [Example 262, 7-(2-((6-ethyl-1,2,3,4-tetrahydroisoquinolin-7-yl)amino)-5-(trifluoromethyl)pyrimidin-4-yl)-4-(oxetan-3-yl)-3,4-dihydrothieno[2,3-f][1,4]thiazepin-5(2H)-one 1,1-dioxide] | ≤ 5
4 | CC(C)c1cc2c(cc1Nc1ncc(C(F)(F)F)c(-c3cc4c(s3)C(=O)N(C3CC3)CCS4(=O)=O)n1)CCNC2 [Example 263, 4-cyclopropyl-7-(2-((7-isopropyl-1,2,3,4-tetrahydroisoquinolin-6-yl)amino)-5-(trifluoromethyl)pyrimidin-4-yl)-3,4-dihydrothieno[2,3-f][1,4]thiazepin-5(2H)-one 1,1-dioxide] | ≤ 5
5 | CCc1cc(N2CCNCC2)ccc1Nc1ncc(C(F)(F)F)c(-c2cc3c(s2)C(=O)N(C2CC2)CCS3(=O)=O)n1 [Example 264, 4-cyclopropyl-7-(2-((2-ethyl-4-(piperazin-1-yl)phenyl)amino)-5-(trifluoromethyl)pyrimidin-4-yl)-3,4-dihydrothieno[2,3-f][1,4]thiazepin-5(2H)-one 1,1-dioxide] | ≤ 5
6 | CCc1cc(N2CCN(CC3CC3)CC2)ccc1Nc1ncc(C(F)(F)F)c(-c2cc3c(s2)C(=O)N(C2CC2)CCS3(=O)=O)n1 [Example 265, 4-cyclopropyl-7-(2-((4-(4-(cyclopropylmethyl)piperazin-1-yl)-2-ethylphenyl)amino)-5-(trifluoromethyl)pyrimidin-4-yl)-3,4-dihydrothieno[2,3-f][1,4]thiazepin-5(2H)-one 1,1-dioxide] | ≤ 5
7 | CCc1cc(N2CCN(CC3COC3)CC2)ccc1Nc1ncc(C(F)(F)F)c(-c2cc3c(s2)C(=O)N(C2CC2)CCS3(=O)=O)n1 [Example 266, 4-cyclopropyl-7-(2-((2-ethyl-4-(4-(oxetan-3-ylmethyl)piperazin-1-yl)phenyl)amino)-5-(trifluoromethyl)pyrimidin-4-yl)-3,4-dihydrothieno[2,3-f][1,4]thiazepin-5(2H)-one 1,1-dioxide] | ≤ 5
8 | CCN1CCc2cc(Nc3ncc(C(F)(F)F)c(-c4cc5c(s4)C(=O)N(C4CC4)CCS5(=O)=O)n3)c(C(C)C)cc2C1 [Example 267, 4-cyclopropyl-7-(2-((2-ethyl-7-isopropyl-1,2,3,4-tetrahydroisoquinolin-6-yl)amino)-5-(trifluoromethyl)pyrimidin-4-yl)-3,4-dihydrothieno[2,3-f][1,4]thiazepin-5(2H)-one 1,1-dioxide] | ≤ 5
9 | CC(C)c1cc2c(cc1Nc1ncc(C(F)(F)F)c(-c3cc4c(s3)C(=O)N(C3CC3)CCS4(=O)=O)n1)CCN(CC1CC1)C2 [Example 268, 4-cyclopropyl-7-(2-((2-(cyclopropylmethyl)-7-isopropyl-1,2,3,4-tetrahydroisoquinolin-6-yl)amino)-5-(trifluoromethyl)pyrimidin-4-yl)-3,4-dihydrothieno[2,3-f][1,4]thiazepin-5(2H)-one 1,1-dioxide] | ≤ 5
